Results from patent US5972943A, “Pyridinecarboxamide derivatives” (Nisshin Flour Milling Co., Ltd., priority 1996, dated 1999).

Key:
[1] = tested on: cerebral edema, ischemic reperfusion model using SHR-SP; test: Anti-cerebral edema action (ischemic reperfusion model using SHR-SP); format: in vivo, male SHR-SP (spontaneous hypertensive rats); conditions: 1 mg/kg i.v. twice; for Inhibitory rate of cerebral ischemia (cerebral edema): immediately after ischemia and immediately before reperfusion
Method: The pyridinecarboxamide derivatives of this invention were studied for the inhibitory action on cerebral edema with the model using SHR-SP (Spontaneous hypertensive rats which are vulnerable to cerebral hemorrhage).
Male SHR-SP of 15-17 weeks old were measured for the blood pressure one day before the testing and classified into groups. Both common carotid arteries were separated under pentobarbital anesthesia at 35 mg/kg and common carotid arteries were fastened by clamp to cause ischemia. After 2 hours, the clamp was removed from the common carotid artery to reperfuse. After a further 2 hours, the animal was decapitated and the cerebrum excised under ether anesthesia. The cerebrum was dried in an oven at 105° C. for 24 hours and the cerebral water content (%) was calculated. [formula]
Compound 1 and Comparative Compound 2 were intravenously administered twice, that is, immediately after the ischemia and immediately before the reperfusion at the dose of 1 mg/kg, respectively.

[2] = Behavior suppressing action (general behaviors of mice); format: in vivo, ddY-strain mice; conditions: 10 mg/kg, tail vein; for Behavioral suppression: observed over one hour
Method: The effect of the present pyridinecarboxamide derivatives on general behaviors of mice was studied.
Using ddY-strain mice of 7 weeks old, test substance was administered at 100μ11/10 sec to the tail vein and behavior of the animal was observed over one hour. After the administration, sedative animal was evaluated as sedated, while animal with behavioral suppression was evaluated as suppressed.

[3] = tested on: hypoxic model of mice; test: Cerebral protective action (anti-anoxia action), hypoxic model of mice, gasping duration after decapitation; format: in vivo, ddY-strain male mice; conditions: 1.0 mg/kg i.v., 30 minutes before decapitation
Method: Cerebral protective action of the pyridinecarboxamide derivatives of this invention (an anti-anoxia action) were studied using a hypoxic model of mice.
Using ddY-strain male mice of 6 weeks old, the test substance of Compound 1, Compound 10 or Compound 11 was intravenously administered to the tail vein at the dose of 1.0 mg/kg. After 30 minutes from the administration, animals were decapitated to measure a gasping duration. This measurement was made by two persons who had not been informed of the test substances and the measured values were averaged to obtain the data. Also, the test was carried out in the same manner as described above except that Comparative Compound 1 was administered instead of the test substances.
The action of each substance will be shown in Table 2, with the gasping time of Comparative Compound 1 being defined as 1.
It is believed that grasping after decapitation is controlled by the respiratory center and, if the nervous functions are maintained by the respiratory center, the gasping duration would be prolonged. […] In view of the foregoing, the pyridinecarboxamide derivatives of this invention can prolong the gasping duration and then are useful as a cerebral protective agent.

[4] = tested on: lipid peroxidation in rat brain homogenate; test: Inhibitory action on lipid peroxidation in rat brain homogenate; format: biochemical, Wistar-strain male rats; conditions: 10^-4 M, 37° C., 15 minutes
Method: Inhibitory action on lipid peroxidation was studied in rat brain homogenate.
Wistar-strain male rats (weighing 230-300 g) were decapitated and the cerebrum was quickly excised. A 4 times volume of a solution of 50 mM phosphoric acid and […] NaCl (pH 7.4) was added and the mixture was homogenated and then centrifuged at 3000 rpm for 10 minutes. The supernatant thus obtained was prepared to give a protein level of 2 mg/ml.
Determination of lipid peroxide was carried out using TBA method (thiobarbituric acid). To the brain homogenate was added each of Compound 1, Compound 5, Compound 6, Compound 8, Compound 9, Compound 11 and Compound 14 as a test substance to give a final concentration of 10^-4 M, thereby initiating the reaction. After incubation at 37° C. for 15 minutes, the reaction was stopped in ice by adding a 35% perchloric acid solution. The reaction mixture was centrifuged at 4° C. and 1000 rpm for 5 minutes and to the supernatant thus obtained was added a 0.5% TBA solution. The mixture was boiled at 100° C. for 15 minutes. After cooling, absorbance was determined at 532 nm. 1,1,3,3-Tetraethoxypropane as a standard was subjected to the reaction in the same manner as above and an amount of lipid peroxide, that is, an amount of the malondialdehyde (MDA) produced was determined from the absorbance.
Inhibitory rate of lipid peroxidation was calculated according to the following equation: [formula]

[5] = tested on: cerebral edema model using polyvinyl acetate; test: Anti-cerebral edema action (obstructive cerebral ischemia model using polyvinyl acetate); format: in vivo, Wistar-strain male rats; conditions: 1 mg/kg i.v., 5 minutes before polyvinyl acetate; rats
Method: Inhibiting action on cerebral ischemia was studied in an obstructive cerebral ischemia model using polyvinyl acetate.
The obstructive model was prepared as described below. (Hiroyoshi Nishi et al., Stroke 1989, 20:1236-1240)
Wistar-strain male rats weighing 200-350 g were used and fixed at the dorsal position under anesthesia of ether and then the left common carotid artery, internal carotid artery, external carotid artery were isolated. The external carotid artery was ligated, the pterylgopalatine artery was fastened with clamp and a cannula was inserted from the external carotid artery toward the branch between the internal carotid artery and the common carotid artery. 5 μl of a 3% polyvinyl acetate/52% ethanol solution in water was injected. After 30 seconds, the clamp was removed from the artery and then the wound was sutured. After 24 hours, animal was decapitated and the cerebrum was isolated, within 120 seconds from which wet weights of the left cerebrum and the right cerebrum were measured. The left and right cerebra were dried in an oven at 105° C. for 24 hours and then the dry weights were measured. A cerebral water content was calculated according to the following equation: [formula]
Compound 1 or Compound 9 was intravenously injected to the tail vein at the doses of 1.0 mg/kg and 3.0 mg/kg before 5 minutes from the administration of polyvinyl acetate.

[6] = tested on: hippocampus CA1 cells; test: Inhibitory rate of delayed neuronal death; format: in vivo, MON/Jms/Gbs-strain male jirds; conditions: 0.5 mg/kg, carotid artery, immediately after ischemia; jirds; 7 days
Method: MON/Jms/Gbs-strain male jirds (weighing 60-80 g) were fixed at the dorsal position under 1.5-2.0% halothane anesthesia and the common carotid artery was isolated. Ischemia was caused by fastening the common carotid artery with clamp for 3 minutes and then reperfused. After 7 days, the brain was excised under ether anesthesia and fixed with 10% formalin for 2 days and then tissue slices of the hippocampus were prepared. The hippocampus CA1 cells were stained using HE staining and the survival rate of the CA1 cells was evaluated.
Compound 1 was administered to the carotid artery at the dose of 0.5 mg/kg immediately after ischemia. Using as a control the case wherein the drug was not administered, inhibitory rate was calculated according to the following equation: [formula]

[7] = known drug, background statement; cited from earlier work
[8] = Behavior suppressing activity (background statement); format: in vivo; conditions: background / disclosure statement
[9] = tested on: hypoxia and anoxia models; conditions: Sakurai et al., Jpn. J. Pharmacol. 1993; cited from earlier work

SMILES | General behaviors (result in words) [2] | Behavioral suppression [2] | Gasping duration (relative to Comparative Compound 1 defined as 1) [3] | Inhibitory rate of lipid peroxidation [4] [%] | also measured
CN1CCN(c2ccc(C(=O)NCCCCCCCCCCCCO[N+](=O)[O-])cn2)CC1 [Comparative Compound 2, N-(12-nitroxy-1-dodecanyl)-6-(4-methyl-1-piperazinyl)nicotinamide, reference compound] | – | – | – | – | Anti-cerebral edema activity (result in words) [1]: made cerebral edema worse; Inhibitory rate of cerebral ischemia (cerebral edema) [1]: -90%
CCCN1CCN(c2ccc(C(=O)NCCCCCCCCCCCCCCO[N+](=O)[O-])cn2)CC1 [Compound 7, N-(14-Nitroxytetradecyl)-6-(4-propyl-1-piperazinyl)pyridine-3-carboxamide] | No abnormalities were observed in general behaviors | Non | – | – | –
CCN1CCN(c2ccc(C(=O)NCCCCCCCCCCCCCCCCO[N+](=O)[O-])cn2)CC1 [Compound 10, N-(16-Nitroxyhexadecyl)-6-(4-ethyl-1-piperazinyl)pyridine-3-carboxamide] | No abnormalities were observed in general behaviors | Non | 1.7 | – | –
CN1CCN(c2ccc(C(=O)NCCCCCCCCCCCCCCCCCCO[N+](=O)[O-])cn2)CC1 [Compound 13, N-(18-Nitroxyoctadecyl)-6-(4-methyl-1-piperazinyl)pyridine-3-carboxamide] | No abnormalities were observed in general behaviors | Non | – | – | –
O=C(NCCCCCCCCCCCCCCO[N+](=O)[O-])c1ccc(N2CCNCC2)nc1 [Compound 6, N-(14-Nitroxytetradecyl)-6-(1-piperazinyl)pyridine-3-carboxamide] | No abnormalities were observed in general behaviors | Non | – | 59 | –
O=C(NCCCCCCCCCCCCCCCCCCO[N+](=O)[O-])c1ccc(N2CCNCC2)nc1 [Compound 14, N-(18-Nitroxyoctadecyl)-6-(1-piperazinyl)pyridine-3-carboxamide] | – | – | – | 75 | –
CCN1CCN(c2ccc(C(=O)NCCCCCCCCCCCCCCO[N+](=O)[O-])cn2)CC1 [Compound 5, N-(14-Nitroxytetradecyl)-6-(4-ethyl-1-piperazinyl)pyridine-3-carboxamide] | No abnormalities were observed in general behaviors | Non | – | 69 | –
CC(C)N1CCN(c2ccc(C(=O)NCCCCCCCCCCCCCCO[N+](=O)[O-])cn2)CC1 [Compound 8, N-(14-Nitroxytetradecyl)-6-(4-isopropyl-1-piperazinyl)pyridine-3-carboxamide] | No abnormalities were observed in general behaviors | Non | – | 70 | –
CN1CCN(c2ccc(C(=O)NCCCCCCCCCCCCCCCCO[N+](=O)[O-])cn2)CC1 [Compound 9, N-(16-Nitroxyhexadecyl)-6-(4-methyl-1-piperazinyl)pyridine-3-carboxamide] | No abnormalities were observed in general behaviors | Non | – | 72 | Inhibitory rate of cerebral edema [5]: 33.3%
CN1CCN(c2ccc(C(=O)NCCCCCCCCCCCCCCO[N+](=O)[O-])cn2)CC1 [Compound 1, N-(14-Nitroxytetradecyl)-6-(4-methyl-1-piperazinyl)pyridine-3-carboxamide] | No abnormalities were observed in general behaviors | Non | 2.6 | 91 | Inhibitory rate (delayed neuronal death) [6]: 47%; Inhibitory rate of cerebral edema [5]: 44.0%; Anti-cerebral edema activity (result in words) [1]: potent anti-cerebral edema activity; Inhibitory rate of cerebral ischemia (cerebral edema) [1]: 63%
CCN(CC)Cc1nccn1-c1ccc([N+](=O)[O-])cc1C(=O)c1ccccc1Cl [Nizofenone] | – | – | – | – | Behavior suppressing activity as a side-effect [7]: behavior suppressing activity
CC(C)N1CCN(c2ccc(C(=O)NCCCCCCCCCCCCCCCCO[N+](=O)[O-])cn2)CC1 [Compound 11, N-(16-Nitroxyhexadecyl)-6-(4-isopropyl-1-piperazinyl)pyridine-3-carboxamide] | No abnormalities were observed in general behaviors | Non | 1.4 | 53 | –
CN1CCN(c2ccc(C(=O)NCCCCCCCCCCCO[N+](=O)[O-])cn2)CC1 [Comparative Compound 1, N-(11-nitroxy-1-undecanyl)-6-(4-methyl-1-piperazinyl)nicotinamide, reference compound] | suppression of behavior being shown | Sedated | 1 | – | Behavior suppressing activity [8]: observed to possess a behavior suppressing activity; Cerebral protective effect on the hypoxia and anoxia models [9]: could show a cerebral protective effect on the hypoxia and anoxia models
